The values below are quoted from earlier work in patent US20020064834A1, “Microbiological production method for alpha-L-aspartyl-L-phenylalanine” (priority 1999, published 2002).

Residues, ends and D or L forms follow the SMILES beside them.

For the data set the following is noted: relative to sucrose.

As for `COC(=O)[C@H](Cc1ccccc1)NC(=O)[C@@H](N)CC(=O)O` [APM, α-L-aspartyl-L-phenylalanine methyl ester] (H-Asp-Phe-OMe), the “sweetness as potent as the sweetness of sucrose” value is “about 200 ×”.
